Experiment [1] concerns the target T1, GATA4 transcriptional activity (Mus musculus, UniProt Q08369).
T1 construct: expressed in transfected cells; host or cells: COS-1
The experiment is described as follows: GATA4 luciferase reporter assay (tandem GATA-site reporter, COS-1 cells). To be noted: for activity at 3 µM: COS-1; for GATA4 (% of control) Mean ± SD: 10 μM, COS-1 cells, 24 h. The format is cell-based. (A reporter such as luciferase makes a cellular process visible.)

The subject of experiment [2] is rat BNP promoter activity in neonatal rat ventricular myocytes. The experiment is described as follows: BNP promoter luciferase reporter in neonatal cardiomyocytes with or without endothelin-1. To be noted: neonatal cardiomyocytes, 24 h. Format: cell-based. The procedure: Five compounds (GATA4–NKX2-5 synergy inhibitors 1, 61, and 65; the synergy activator 2; and the NKX2-5 activity inhibitor 47c) were selected for studies in neonatal cardiomyocytes, which were treated with endothelin-1 (ET-1), a well-established hypertrophic agonist that activates the gene expression of both ANP and BNP (Figure 4). The myocytes were transfected with construct containing −534/+4 proximal region of rat BNP promoter with GATA4 and NKX2-5 binding sites in front of luciferase before exposure to compounds and ET-1, which was added 1 h after the compounds.
Figure 4 Effects of the compounds 1, 2, 47c, 61, and 65 on BNP gene activation in cardiomyocytes. Neonatal cardiomyocytes were transfected with rat BNP luciferase reporter for 24 h. The cells were exposed to compounds and 1 h later to endothelin-1 (ET-1) for 24 h. The results are expressed as +SD (n = 3 or 9 for DMSO groups). ***P < 0.001 vs DMSO; **P < 0.01 vs DMSO; *P < 0.05 vs DMSO (one-way ANOVA followed by Tukey’s HSD or Welch ANOVA followed by Games–Howell); ^###P < 0.001 vs DMSO, no stimulus (independent samples Student’s t test).
The plasmids expressing mouse GATA4 protein, pMT2-GATA4, and empty pMT2 were gifts from D. B. Wilson (Department of Pediatrics, St. Louis Children’s Hospital, St. Louis, MO).[44] The plasmids expressing mouse NKX2-5 protein, pMT2-NKX2-5, have been described earlier.[28] The luciferase reporter plasmid used in GATA4–NKX2-5 transcriptional synergy assay and NKX transcriptional assay, pGL3-3xHA, contains three high affinity binding sites for NKX2-5.[28] The luciferase reporter plasmid used in GATA transcriptional assay, NP-112, contains tandem GATA-sites and minimal promoter of rat brain natriuretic peptide (BNP) gene.[45] The pGL3-BNP luciferase reporter containing −534/+4 bp rat BNP proximal promoter described previously was used in hypertrophy assay.[46]
The neonatal rat ventricular myocytes were isolated from 2- to 3-day-old Wistar rats, as described earlier.[29],[32] Rat pups were acquired from the experimental animal facility of the University of Helsinki with an internal use license (KEK17-012). Animals were housed in standard conditions, and their handling and all procedures were carried out in accordance with University of Helsinki institutional guidelines, which conform to the National Research Council (U.S.) Guide for the Care and Use of Laboratory Animals.[47] The cells were seeded at 50 000 cells/well in Isoplate-96 microplates (PerkinElmer, Turku, Finland) and cultured for 18–20 h with Dulbecco’s modified Eagle medium (DMEM)/F12 culture medium containing 2.5 mM L-glutamine, supplemented with 100 IU/mL penicillin–streptomycin and 10% fetal bovine serum (all from Gibco, Thermo Scientific). Transfections were carried out for 24 h in serum free media (CSFM; DMEM/F12, 2.5 mg/mL bovine serum albumin, 1 μM insulin, 2.5 mM L-glutamine, 32 nM selenium, 2.8 mM sodium pyruvate, 5.64 μg/mL transferrin, 1 nM T3, and 100 IU/mL PS) by using 100 ng of pGL3-BNP luciferase plasmid per well in a 1:3 ratio of DNA/transfection reagent (Fugene 6, Promega). […] After 24 h, the luminescence was measured as above.
Results from cardiomyocyte experiments are expressed as mean + SD from at least three independent experiments. Data were analyzed using IBM SPSS Statistics 24 software. […] Significance between ET-1 and DMSO samples was analyzed with independent samples Student’s t test. […]

The mark [3] stands for this setting: 3 µM, luciferase reporter activity, % of control.
Setting [4] is: 3 µM, luciferase reporter activity relative to control.

T1 sequence (Q08369 whole entry): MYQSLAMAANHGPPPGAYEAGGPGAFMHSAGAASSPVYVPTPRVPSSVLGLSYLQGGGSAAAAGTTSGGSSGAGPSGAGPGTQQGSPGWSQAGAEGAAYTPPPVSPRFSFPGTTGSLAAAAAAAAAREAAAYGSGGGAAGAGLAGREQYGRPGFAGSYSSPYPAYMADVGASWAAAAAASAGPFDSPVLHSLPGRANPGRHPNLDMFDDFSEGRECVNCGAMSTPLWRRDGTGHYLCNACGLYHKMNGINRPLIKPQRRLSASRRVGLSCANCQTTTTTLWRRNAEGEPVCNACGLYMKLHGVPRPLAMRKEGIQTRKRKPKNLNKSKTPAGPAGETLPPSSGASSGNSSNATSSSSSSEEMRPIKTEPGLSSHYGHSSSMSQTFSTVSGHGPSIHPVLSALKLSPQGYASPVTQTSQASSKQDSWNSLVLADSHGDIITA

Regarding `CCN(CC)c1ccc(NC(=O)c2c(-c3ccccc3)noc2C)cc1` [Compound 1, N-[4-(Diethylamino)phenyl]-5-methyl-3-phenylisoxazole-4-carboxamide], in experiment [1] (setting [3]), the activity at 3 µM stood at 92.1%. With `Cc1onc(-c2ccccc2)c1C(=O)N(C1=NC(C)CS1)c1ccc(Cl)cc1` (stereo not drawn) [Compound 2], the activity at 3 µM in experiment [1] (setting [3]) worked out at 145%. The “effect on BNP promoter activity in cardiomyocytes (in words)” value in experiment [2] is “increased BNP promoter activity”.

For the compound `Cc1onc(-c2ccccc2)c1COc1ccc(C(=O)OCCC#N)cc1` [Compound 35a, 2-Cyanoethyl 4-[(5-Methyl-3-phenylisoxazol-4-yl)methoxy]benzoate], the activity at 3 µM in experiment [1] (setting [4]) came out at 46.9%. The same measure, in the same setting: to `CCN(CC)c1ccc(NC(=O)c2cnsc2)cc1` [Compound 47s] belongs 128%; to `CCC(=O)N(Cc1ccc(N(CC)CC)cc1)c1c(-c2ccccc2)noc1C` [Compound 58], 70.3%. Turning to `COc1ccc(-c2cc(NC(=O)c3ccc(C(C)(C)C)cc3)n[nH]2)cc1` [Compound 72], the “GATA4 (% of control) Mean ± SD” value in experiment [1] was 40 % of control. For the same compound, in experiment [1] (setting [4]), the activity at 3 µM was 70.5%. As for “N-[4-(Diethylamino)phenyl]-3-methyl-5-(4-methyl-1,2,3-thiadiazol-5-yl)isoxazole-4-carboxamide [Compound 47c]”, the GATA.3µM in experiment [1] (setting [4]) is reported as 61.94. Also, the “GATA4 (% of control) Mean ± SD” value in experiment [1] is 68 ± 9.1 % of control. Also, the GATA.10µM in experiment [1] (10 µM, luciferase reporter activity relative to control) is 68.28. The “effect on BNP promoter activity in cardiomyocytes (in words)” value in experiment [2] is “increased BNP promoter activity”.

The values are drawn from publication PMC7076710, “Synthesis, Identification, and Structure–Activity Relationship Analysis of GATA4 and NKX2-5 Protein–Protein Interaction Modulators” (Journal of Medicinal Chemistry, 2019).
